Measurements: PMC11921344, “Antimicrobial peptide DiPGLa-H exhibits the most outstanding anti-infective activity among the PGLa variants based on a systematic comparison” (Applied and Environmental Microbiology, 2025)
Where no end group is shown, it is not given here.

Columns and labels:
S. aureus Mu50 [1] = test: ROS generation (DCFH-DA); format: cell-based, Staphylococcus aureus MRSA; conditions: 8 µM DiPGLa-H, 1 h 37°C, DCFH-DA 10 µM
Method: (§1) 2′,7′-Dichlorofluorescin diacetate (DCFH-DA) was used to determine the intracellular production of ROS as previously described. S. aureus Mu50 and E. coli K88 cells were diluted until OD600 = 0.4 and incubated in different concentrations of peptide at 37°C for 1 h. Next, the mixed solution was incubated with 10 µM DCFH-DA at 37°C for 1 h. The fluorescence (excitation wavelength = 488 nm, emission wavelength = 525 nm) was monitored with an Infinite 200 pro fluorescence spectrophotometer (Tecan, China). Each test was measured in triplicate and tested twice.

[2] = tested on: P. aeruginosa ATCC27853 biofilm; test: Anti-biofilm assay (crystal violet); format: cell-based, Pseudomonas aeruginosa
Method: (§2) The anti-biofilm activity of DiPGLa-H was evaluated using a crystal violet staining method. Briefly, 100 µL of bacterial suspension at 1 × 10^6 CFU/mL was incubated with DiPGLa-H (0–64 µM) for 48 h. The biofilm formed was stained with 1% crystal violet, and the absorbance was measured at 595 nm. The biofilm formation and mature biofilm removal assays were conducted. For biofilm formation, a bacterial suspension was incubated with DiPGLa-H, and biofilm content was quantified. To assess mature biofilm removal, pre-formed biofilms were treated with DiPGLa-H for 24 h, followed by quantification. Detailed Protocol in Supplementary Materials.
(§3) To test the ability of DiPGLa-H to […] on the test bacteria, a single colony was inoculated in MHB medium and incubated overnight at 37 °C and 180 r/min, and 1% of the bacterial suspension was taken and continued to be amplified and incubated for 2 h. […] The biofilm content was analyzed by measuring the absorbance value at 595 nm, and anhydrous ethanol was used as a blank control. […]

S. aureus Mu50 infection = test: Mouse abdominal infection model; format: in vivo, C57BL/6 mice; conditions: for number of mice that survived: Mu50+DiPGLa-H
Method: (§4) Six-to-eight-week-old C57BL/6 male mice were selected for the experiment and housed in cages under specific pathogen-free conditions with water and laboratory mouse chow. Each strain was divided into three groups, and each group and the second group were required to be injected intraperitoneally with a lethal amount of bacterial fluid with a working fluid concentration of 64 µg/mL of DiPGLa-H, and the third group was injected with PBS. […] Then homogenized and serially diluted with PBS to 10^7 times. 100 µL of the gradient dilution was applied to the TSA plate, which was subsequently incubated at 37°C overnight and counted the next day for survival analysis using GraphPad Prism software. The protocol and use of animals were approved by the Institutional Animal Care and Use Committee of the Northwest A&F University.

E. coli K88 infection = test: Mouse abdominal infection model; format: in vivo, C57BL/6 mice; conditions: for number of mice that survived: K88+DiPGLa-H
Method: as §4

E. coli K88 biofilm = test: Anti-biofilm assay (crystal violet); format: cell-based, Escherichia coli
Method: as §2, §3

S. aureus Mu50 [3] = test: Time-kill (bactericidal) curve; format: cell-based, Staphylococcus aureus MRSA; conditions: four times MIC, TSB, 37°C
Method: (§5) The antibacterial activity was evaluated using a standard MIC and MBC assay according to the National Committee for Clinical Laboratory Standards (NCCLS). MIC, MBC assay, and time-kill curves for the optimal peptide are provided in the Supplementary Materials.
(§6) The bactericidal curve of the optimal peptide was further determined. […] Each test was replicated at least 3 times.

S. aureus Mu50 biofilm = test: Anti-biofilm assay (crystal violet); format: cell-based, Staphylococcus aureus MRSA
Method: as §2, §3

E. coli K88 [4] = test: Time-kill (bactericidal) curve; format: cell-based, Escherichia coli; conditions: four times MIC, TSB, 37°C
Method: as §5, §6

[5] = tested on: A. baumannii ATCC19606 biofilm; test: Anti-biofilm assay (crystal violet); format: cell-based, Acinetobacter baumannii
Method: as §2, §3

E. coli K88 [6] = test: ROS generation (DCFH-DA); format: cell-based, Escherichia coli; conditions: 8 µM DiPGLa-H, 1 h 37°C, DCFH-DA 10 µM
Method: as §1

[7] = 1×10^6 CFU/mL, DiPGLa-H 0-64 µM, 48 h, crystal violet, 595 nm
[8] = heart, liver, spleen, 1 day after infection, 5 mice per group
[9] = pre-formed biofilm treated with DiPGLa-H 0-64 µM for 24 h

KIAKVALKALKIAKVALKAL-NH2 (C-terminus assumed) [DiPGLa-H]
elevation of ROS production vs untreated (S. aureus Mu50 [1]): 4.6 fold
inhibition of biofilm formation [2, 7]: inhibition at higher concentrations
biofilm elimination capacity ([2]; pre-formed biofilm treated with DiPGLa-H for 24 h, similar concentrations (above 16 µM)): less pronounced
increase of survival rate of mice (S. aureus Mu50 infection; C57BL/6 male mice, intraperitoneal lethal Mu50, DiPGLa-H working concentration 64 µg/mL, 16 mice per group): 31%
number of mice that survived (S. aureus Mu50 infection; day 1, of 16 mice): 12
number of mice that survived (S. aureus Mu50 infection; day 2, of 16 mice): 11
number of mice that survived (S. aureus Mu50 infection; day 3, of 16 mice): 10
number of mice that survived (S. aureus Mu50 infection; day 4, of 16 mice): 8
number of mice that survived (S. aureus Mu50 infection; day 5, of 16 mice): 6
number of mice that survived (S. aureus Mu50 infection; day 6, of 16 mice): 6
number of mice that survived (S. aureus Mu50 infection; day 7, of 16 mice): 5
number of mice that survived (S. aureus Mu50 infection; day 8, of 16 mice): 5
reduction of bacterial loads in the organs (S. aureus Mu50 infection; [8]): 100 fold
number of mice that survived (E. coli K88 infection; day 1, of 16 mice): 13
number of mice that survived (E. coli K88 infection; day 2, of 16 mice): 12
number of mice that survived (E. coli K88 infection; day 3, of 16 mice): 10
number of mice that survived (E. coli K88 infection; day 4, of 16 mice): 9
number of mice that survived (E. coli K88 infection; day 5, of 16 mice): 9
number of mice that survived (E. coli K88 infection; day 6, of 16 mice): 9
number of mice that survived (E. coli K88 infection; day 7, of 16 mice): 9
number of mice that survived (E. coli K88 infection; day 8, of 16 mice): 9
reduction of bacterial loads in the organs (E. coli K88 infection; [8]): 1,000 fold
concentration for effective inhibition of biofilm formation (E. coli K88 biofilm; [7]): above 4 µM
concentration effectively eradicating biofilms (E. coli K88 biofilm; [9]): above 16 µM
time to complete eradication of S. aureus Mu50 (S. aureus Mu50 [3]): 6 h
inhibition of biofilm formation (S. aureus Mu50 biofilm; [7]): inhibition at higher concentrations
concentration effectively eradicating biofilms (S. aureus Mu50 biofilm; [9]): above 16 µM
time to complete eradication of E. coli K88 (E. coli K88 [4]): ≤ 30 min
concentration for effective inhibition of biofilm formation [5, 7]: above 4 µM
concentration effectively eradicating biofilms [5, 9]: above 16 µM
elevation of ROS production vs untreated (E. coli K88 [6]): 11.3 fold
